Results taken from US10751396B2, “Early hyperlipidemia promotes endothelial activation via a caspase-1-sirtuin 1 pathway” (Temple University—Of The Commonwealth System of Higher …, priority 2015, dated 2020).

Key:
Assay type in all cases: cell-based, human
caspase-1 = assay: Caspase-1 activity assay (FAM-YVAD-FMK, flow cytometry) in HAECs; conditions: 6 h, oxLDL (100 μM), LPA (30 μM), LPC (30 μM)
Procedure: (§1) Active caspase-1 level was determined with APO LOGIX kit (Cell Tech., Mountain View, Calif.). The kit contains a carboxyfluorescein (FAM) [Excitation/Emission (nm):490/520]-labeled peptide fluoromethyl ketone (FMK) caspase-1 inhibitor (FAM-YVAD-FMK), which irreversibly binds to active caspase-1. All procedures were performed according to the manufacturer's instruction. Briefly, HAECs (≤passage 9) were cultured in 6-well plates and serum starved overnight to quiescent the cells before treatment. Next day, HAECs were treated with indicated stimuli for 6 hr. Cells were then digested by trypsin-EDTA and suspended at 1×10^6 cells/ml. 150 μl of cell suspension were incubated at 37° C. with 1× FAM-YVAD-FMK for 1 hour then washed with 1× washing buffer. Unfixed caspase-1 stained cells were then incubated with 7-aminoactinomycin D (7-AAD; cell membrane integrity marker) (BD Pharmingen, San Diego, Calif.) for no more than 10 min before analysis. The Calibur flow cytometer (BD Biosciences, San Jose, Calif.) was used to determine caspase-1 active (Caspase-1^+) and 7-AAD^+ cells. Data were analyzed with the FlowJo software (Tree Star, Ashland, Oreg.).
Active caspase-1 levels were determined with an APO LOGIX kit (Cell Technology, Mountain View, Calif.). The kit contained a carboxyfluorescein (FAM) (excitation/emission (nm): 490/520)-labeled peptide fluoromethyl ketone (FMK) caspase-1 inhibitor (FAM-YVAD-FMK), which irreversibly binds to active caspase-1. The procedures were performed according to the manufacturer's instructions. HAECs were cultured in 6-well dishes and serum-starved overnight to ensure quiescence of the cells before treatment. The next day, HAECs were treated with the indicated stimuli for 6 h. Cells were harvested and suspended at 1×10^6 cells/ml. The cell suspension (150 μl) was incubated in 37° C. with 1× FAM-YVAD-FMK for 1 h. After being washed with 1× washing buffer, the cells were fixed with fixative buffer and stored in 4° C. for up to 24 h. To determine the cell membrane integrity, the unfixed cells were stained with 7-AAD (Pharmingen) (0.25 μg/test) and incubated for no more than 10 min before analysis.
(§2) All flow cytometric data were analyzed by using the FlowJo software (Tree Star, Ashland, Oreg.). The uncompensated data were collected from the flow cytometer (either FACSCalibur flow cytometer or LSRII flow cytometer; BD Biosciences). Forward and side scatter gates were used to select live cell populations from clumps and debris. The positive gating was determined by its matched IgG control, and single staining was used to determine the compensation parameter. Different gates were established to analyze the data according to cell size as described in our figures.

HAECs [1] = assay: Caspase-1/7-AAD co-staining for pyroptosis in HAECs
Procedure: FIG. 7, comprising FIG. 7A through FIG. 7D, depicts experimental results showing Oxidized low-density lipoprotein (oxLDL) and its components induce caspase-1 (casp-1) activation in human aortic endothelial cells (HAECs) via a reactive oxygen species (ROS)-mediated p-athway. FIG. 7A depicts pyroptotic cell death in HAECs caused by activation of casp-1 induced by oxLDL and its components. HAECs were cultured and treated with low-density lipoprotein (LDL; 100 μg/mL), oxLDL (100 μg/mL), oxLDL-derivatives lysophosphatidic acid (LPA, 100 μM), or lysophosphatidylcholine (LPC, 15 μM) as indicated for 6 hours. Casp-1 activity was determined by a commercial kit, and 7-aminoactinomycin D (7-AAD) fluorescence dye was used to determine the cell membrane integrity. Casp-1^+/7-AAD^+ cells were gated as pyrototic cells (Q3), casp-1^+ single positive cells (Q2) were gated as inflammatory cells, and 7-AAD^+ single positive cells (Q4) were gated as necrotic cells. FIG. 7B depicts ROS levels in pyroptotic cells. ROS levels were determined by dihydroethidium (DHE) fluorescence dye staining, and the mean fluorescence intensity (MFI) of DHE^+ cell fraction was determined. […] Allopurinol (1 mmol/L) and Apocynin (100 μM) were added 1 hour before oxLDL treatment. HAECs were then treated with oxLDL (100 μg/mL) for 6 hours and stained for caspase-1 activity. FIG. 7D depicts mRNA upregulation of inflammasome components, including NLRP1 (Nod-like receptor protein 1), NLRP3 (Nod-like receptor 3), PYCARD (or ASC, inflammasome adaptor apoptosis-associated speck-like protein containing a CARD), caspase-1, and IL-1β (interleukin-1β) in HAECs treated with oxLDL. Data are expressed as mean±SE. *P<0.05, changes with statistical significance.
as §1
Active caspase-1 levels were determined with an APO LOGIX kit (Cell Technology, Mountain View, Calif.). The kit contained a carboxyfluorescein (FAM) (excitation/emission (nm): 490/520)-labeled peptide fluoromethyl ketone (FMK) caspase-1 inhibitor (FAM-YVAD-FMK), which irreversibly binds to active caspase-1. The procedures were performed according to the manufacturer's instructions. HAECs were cultured in 6-well dishes and serum-starved overnight to ensure quiescence of the cells before treatment. The next day, HAECs were treated with the indicated stimuli for 6 h. Cells were harvested and suspended at 1×10^6 cells/ml. […]

VEGFR-2 = VEGFR-2 expression in LPC-treated HAECs by flow cytometry; conditions: LPC (30 μM) 6 h; caspase-1 inhibitor or Sirt-1 activator 10 μM pretreatment where named
Procedure: FIG. 17, comprising FIG. 17A through FIG. 17D, depicts experimental results showing inhibition of caspase-1 activation and activation of Sirt-1 increase VEGFR-2 expression. FIG. 17A depicts experiments showing caspase-1 depletion increases VEGFR-2 expression. A microarray data-mining analysis was performed by analyzing the indicated microarray dataset deposited in the National Institutes of Health NCBI-Geo-profile database. The gene expression value was determined based on the relative threshold cycle on the database. […] In addition, depletion of caspase-1 slightly increases the expressions of the caspase-1-cleaving substrates cytokines IL-1β and IL-18. […] FIG. 17B depicts caspase-1 inhibition and Sirt-1 activation increase the expression of VEGFR-2 after LPC treatment in HAECs. HAECs pretreated with the caspase-1 inhibitor (10 μM) and Sirt-1 activator (10 μM) and then treated with LPC (30 μM) for 6 h have an increased expression of VEGFR-2. FIG. 17C depicts three cell size gates were established, small, medium, and large according to FSC (y axis); and VEGFR-2 expression (x axis) was measured in those gated cells to analyze differential VEGFR-2 expressions according to the cell size after treatments with LPC (30 μM), caspase-1 inhibitor (10 μm), and Sirt-1 activator (10 μm) for 6 h. […] FIG. 17D depicts bar graphs showing the quantitation data of VEGFR-2 expressions. *, p<0.05.
as §2

HAECs [2] = assay: Tube formation assay in Matrigel; conditions: LPC (30 μm) with or without caspase-1 inhibitor (10 μm), Matrigel 16 h
Procedure: FIG. 18, comprising FIG. 18A and FIG. 18B, depicts experimental results showing tube formation, as an in vitro model of angiogenesis, is improved after caspase-1 inhibition in LPC-treated cells. FIG. 18A depicts experiments where HAECs were treated with LPC (30 μm) and caspase-1 inhibitor (10 μm) for 6 h. After the treatment, the cells were incubated in the Matrigel for 16 h for the analysis of tube formation. FIG. 18B depicts bar graph showing the increases of total master segment lengths after the inhibition of caspase-1 in LPC-treated HAECs.*, p<0.05.
The Matrigel matrix (Bedford, Mass.) was used to coat the 96-well plates. Human aortic endothelial cells were cultured. The cells were treated with caspase-1 inhibitor (Anaspec, Fremont, Calif.) and proatherogenic stimulus LPC for 24 h. HAECs were harvested and suspended. Cell concentration was determined and added to each Matrigel-coated well and incubated for 16-18 h. Images were collected using the inverted microscope.

**Q.** Which results are given for `CCCCCCCCCCCCCCCC(=O)OC[C@@H](O)COP(=O)([O-])OCC[N+](C)(C)C` [LPC, 1-hexadecanoyl-sn-glycerol-3-phosphorylcholine]?
**A.** caspase-1 activation in larger size of HAECs (caspase-1; large FSC gate): 52.8%; caspase-1 activation in smaller size of HAECs (caspase-1; small FSC gate): 38.2%; induction of inflammation, pyroptosis and necrosis (caspase-1/7-AAD gating) (HAECs [1]; HAECs, 6-hour stimulation, oxLDL 100 μg/mL, LPA 100 μM, LPC 15 μM): induced inflammation, inflammatory cell death (pyroptosis), and necrosis; 7-AAD+ pyroptosis in large size of caspase-1(+) HAECs (HAECs [1]; LPC-treated HAECs): 9.93%; 7-AAD+ pyroptosis in medium size of caspase-1(+) HAECs (HAECs [1]; LPC-treated HAECs): 20.17%; 7-AAD+ pyroptosis in smaller size of caspase-1(+) HAECs (HAECs [1]; LPC-treated HAECs): 38.77%; VEGFR-2 expression in the larger size of HAECs (VEGFR-2): 34.3%; VEGFR-2 expression in the medium size of HAECs (VEGFR-2): 22.1%; VEGFR-2 expression in the smaller size of HAECs (VEGFR-2): 11.3%; total master segment length of tube formation (HAECs [2]): 317 μm
